From ChEMBL document CHEMBL1144680, “Structure-guided design of aminopyrimidine amides as potent, selective inhibitors of lymphocyte specific kinase: synthesis, structure-activity relationships, and inhibition of in vivo T cell activation” (J Med Chem, 2008)
pIC50: −log10 of the molar value.

Assays:
[1] = molecular target: Tyrosine-protein kinase Lck (Homo sapiens, UniProt P06239)
Description: Inhibition of Lck by HTRF assay

[2] = molecular target: T1, Tyrosine-protein kinase JAK3 (Homo sapiens, UniProt P52333); experiment: Inhibition of Jak3 by HTRF assay
T1 sequence (P52333 whole entry): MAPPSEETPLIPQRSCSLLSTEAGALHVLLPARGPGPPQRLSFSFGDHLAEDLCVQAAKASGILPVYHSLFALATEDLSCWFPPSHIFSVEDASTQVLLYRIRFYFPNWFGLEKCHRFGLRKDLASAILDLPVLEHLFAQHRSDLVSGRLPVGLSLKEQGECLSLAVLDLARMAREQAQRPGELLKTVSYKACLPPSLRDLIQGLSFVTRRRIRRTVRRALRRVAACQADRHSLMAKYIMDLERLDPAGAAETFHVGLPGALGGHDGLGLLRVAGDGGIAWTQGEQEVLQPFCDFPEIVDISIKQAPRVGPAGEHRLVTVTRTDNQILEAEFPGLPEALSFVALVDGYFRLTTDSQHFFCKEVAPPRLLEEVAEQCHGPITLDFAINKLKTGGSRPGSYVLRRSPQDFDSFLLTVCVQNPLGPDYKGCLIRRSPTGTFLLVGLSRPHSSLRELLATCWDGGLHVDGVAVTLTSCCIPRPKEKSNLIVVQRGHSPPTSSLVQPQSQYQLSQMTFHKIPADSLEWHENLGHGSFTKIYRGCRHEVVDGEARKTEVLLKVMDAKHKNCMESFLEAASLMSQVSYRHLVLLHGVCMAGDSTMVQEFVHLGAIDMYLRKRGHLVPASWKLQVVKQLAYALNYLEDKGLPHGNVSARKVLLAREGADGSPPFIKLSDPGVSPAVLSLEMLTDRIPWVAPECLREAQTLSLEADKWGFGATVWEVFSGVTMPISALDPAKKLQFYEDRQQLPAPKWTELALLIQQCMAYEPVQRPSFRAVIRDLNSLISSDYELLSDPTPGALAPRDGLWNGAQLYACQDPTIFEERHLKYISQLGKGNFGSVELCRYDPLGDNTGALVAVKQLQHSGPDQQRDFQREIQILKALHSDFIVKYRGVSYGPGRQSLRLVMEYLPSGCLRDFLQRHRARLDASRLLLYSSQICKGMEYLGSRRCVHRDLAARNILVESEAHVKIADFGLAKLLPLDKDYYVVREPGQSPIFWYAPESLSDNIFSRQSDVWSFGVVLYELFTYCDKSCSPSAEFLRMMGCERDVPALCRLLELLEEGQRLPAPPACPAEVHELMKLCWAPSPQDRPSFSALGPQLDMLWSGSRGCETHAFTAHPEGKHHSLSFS

[3] = molecular target: Angiopoietin-1 receptor (Homo sapiens, UniProt Q02763); experiment: Inhibition of Tie2 by HTRF assay
[4] = molecular target: Vascular endothelial growth factor receptor 2 (Homo sapiens, UniProt P35968); experiment: Inhibition of KDR by HTRF assay
[5] = molecular target: Mitogen-activated protein kinase 14 (Homo sapiens, UniProt Q16539); experiment: Inhibition of p38alpha by HTRF assay
[6] = system: Lymphocyte; experiment: Inhibition of T cell activation in human peripheral blood lymphocytes by mixed lymphocyte reaction; format: functional, cell-based
[7] = Protein binding in mouse plasma; format: ADME, cell-free; details: read-out: PB (converted)
[8] = AUC (0 to infinity) in Sprague-Dawley rat at 2 mg/kg, po; format: ADME, organism-based; design: time infinity, dose 2 mg/kg, route oral; details: plasma
[9] = Half life in Sprague-Dawley rat at 0.5 mg/kg, iv; format: ADME, organism-based; design: dose 0.5 mg/kg, route intravenous; details: in vivo
[10] = Oral bioavailability in Sprague-Dawley rat at 2 mg/kg; format: ADME, organism-based; details: in vivo
[11] = Tmax in Sprague-Dawley rat at 2 mg/kg; format: ADME, organism-based; design: dose 2 mg/kg; details: in vivo
[12] = Clearance in Sprague-Dawley rat at 0.5 mg/kg, iv; format: ADME, organism-based; design: dose 0.5 mg/kg, route intravenous; details: in vivo
[13] = system: Blood; experiment: Inhibition of anti-CD3-induced IL2 production in human whole blood by ELISA; format: functional, tissue-based
[14] = Cmax in Sprague-Dawley rat at 2 mg/kg, po; format: ADME, organism-based; design: dose 2 mg/kg, route oral; details: in vivo
[15] = Protein binding in rat plasma; format: ADME, cell-free; details: read-out: PB (converted)
[16] = Volume of distribution at steady state in Sprague-Dawley rat at 0.5 mg/kg, iv; format: ADME, organism-based; design: dose 0.5 mg/kg, route intravenous; details: in vivo, read-out: Vdss

Sequence of Mitogen-activated protein kinase 14 (Q16539 whole entry): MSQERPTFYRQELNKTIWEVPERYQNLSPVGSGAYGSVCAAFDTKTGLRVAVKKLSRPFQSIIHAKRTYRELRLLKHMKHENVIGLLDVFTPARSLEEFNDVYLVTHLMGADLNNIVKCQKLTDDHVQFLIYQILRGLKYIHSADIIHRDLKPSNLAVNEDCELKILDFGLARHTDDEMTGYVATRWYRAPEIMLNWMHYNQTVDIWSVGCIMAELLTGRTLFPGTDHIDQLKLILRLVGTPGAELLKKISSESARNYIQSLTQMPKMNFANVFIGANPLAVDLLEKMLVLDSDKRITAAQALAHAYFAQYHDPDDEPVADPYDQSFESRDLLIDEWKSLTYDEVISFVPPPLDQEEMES
Sequence of Tyrosine-protein kinase Lck (P06239 whole entry): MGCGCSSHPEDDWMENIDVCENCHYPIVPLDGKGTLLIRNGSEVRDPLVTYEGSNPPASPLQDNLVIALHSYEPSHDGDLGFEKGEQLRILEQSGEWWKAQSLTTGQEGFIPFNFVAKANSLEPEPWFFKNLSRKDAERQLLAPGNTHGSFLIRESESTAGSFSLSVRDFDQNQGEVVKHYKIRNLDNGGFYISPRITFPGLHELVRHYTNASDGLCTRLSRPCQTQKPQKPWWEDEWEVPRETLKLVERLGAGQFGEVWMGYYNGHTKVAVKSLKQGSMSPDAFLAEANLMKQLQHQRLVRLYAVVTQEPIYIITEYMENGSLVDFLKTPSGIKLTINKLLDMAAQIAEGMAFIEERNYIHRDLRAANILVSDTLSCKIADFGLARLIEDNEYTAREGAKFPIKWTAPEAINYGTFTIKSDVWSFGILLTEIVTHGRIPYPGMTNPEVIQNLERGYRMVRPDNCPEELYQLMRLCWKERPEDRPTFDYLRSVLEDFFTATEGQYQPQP
Sequence of Vascular endothelial growth factor receptor 2 (P35968 whole entry): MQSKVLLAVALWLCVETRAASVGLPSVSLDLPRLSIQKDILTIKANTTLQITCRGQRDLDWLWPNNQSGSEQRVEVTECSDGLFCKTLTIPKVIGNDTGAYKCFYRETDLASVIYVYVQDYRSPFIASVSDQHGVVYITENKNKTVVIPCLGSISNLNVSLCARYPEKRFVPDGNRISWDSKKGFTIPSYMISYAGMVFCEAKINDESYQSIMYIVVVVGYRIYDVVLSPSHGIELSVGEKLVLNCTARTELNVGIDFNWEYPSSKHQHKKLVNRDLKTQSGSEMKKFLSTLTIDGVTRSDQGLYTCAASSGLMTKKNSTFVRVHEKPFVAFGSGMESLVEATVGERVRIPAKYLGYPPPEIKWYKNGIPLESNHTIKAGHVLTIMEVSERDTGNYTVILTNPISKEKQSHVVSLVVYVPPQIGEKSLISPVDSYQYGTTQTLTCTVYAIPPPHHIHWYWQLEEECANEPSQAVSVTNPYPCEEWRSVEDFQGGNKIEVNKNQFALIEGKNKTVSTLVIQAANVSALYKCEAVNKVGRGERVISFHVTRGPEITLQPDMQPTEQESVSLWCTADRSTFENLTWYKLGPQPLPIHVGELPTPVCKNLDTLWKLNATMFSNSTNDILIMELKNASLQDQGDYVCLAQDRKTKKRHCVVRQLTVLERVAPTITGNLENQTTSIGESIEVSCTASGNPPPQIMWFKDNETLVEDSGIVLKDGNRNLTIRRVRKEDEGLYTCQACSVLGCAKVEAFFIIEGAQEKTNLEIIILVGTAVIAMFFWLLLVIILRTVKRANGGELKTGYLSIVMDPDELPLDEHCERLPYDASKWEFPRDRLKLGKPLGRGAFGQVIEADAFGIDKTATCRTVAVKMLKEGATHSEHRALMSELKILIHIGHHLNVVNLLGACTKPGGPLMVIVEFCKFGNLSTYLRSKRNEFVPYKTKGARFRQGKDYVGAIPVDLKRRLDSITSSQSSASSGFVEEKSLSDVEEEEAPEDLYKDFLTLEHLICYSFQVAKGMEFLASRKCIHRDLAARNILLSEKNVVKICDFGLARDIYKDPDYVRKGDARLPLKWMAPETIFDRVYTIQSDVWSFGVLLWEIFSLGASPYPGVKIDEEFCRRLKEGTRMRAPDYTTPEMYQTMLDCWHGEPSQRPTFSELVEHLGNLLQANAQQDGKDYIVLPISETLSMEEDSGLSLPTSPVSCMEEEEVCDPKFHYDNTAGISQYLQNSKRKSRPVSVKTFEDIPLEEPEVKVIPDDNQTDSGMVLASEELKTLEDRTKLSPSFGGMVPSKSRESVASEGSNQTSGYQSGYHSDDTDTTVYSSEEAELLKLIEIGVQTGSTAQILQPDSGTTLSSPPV
Sequence of Angiopoietin-1 receptor (Q02763 whole entry): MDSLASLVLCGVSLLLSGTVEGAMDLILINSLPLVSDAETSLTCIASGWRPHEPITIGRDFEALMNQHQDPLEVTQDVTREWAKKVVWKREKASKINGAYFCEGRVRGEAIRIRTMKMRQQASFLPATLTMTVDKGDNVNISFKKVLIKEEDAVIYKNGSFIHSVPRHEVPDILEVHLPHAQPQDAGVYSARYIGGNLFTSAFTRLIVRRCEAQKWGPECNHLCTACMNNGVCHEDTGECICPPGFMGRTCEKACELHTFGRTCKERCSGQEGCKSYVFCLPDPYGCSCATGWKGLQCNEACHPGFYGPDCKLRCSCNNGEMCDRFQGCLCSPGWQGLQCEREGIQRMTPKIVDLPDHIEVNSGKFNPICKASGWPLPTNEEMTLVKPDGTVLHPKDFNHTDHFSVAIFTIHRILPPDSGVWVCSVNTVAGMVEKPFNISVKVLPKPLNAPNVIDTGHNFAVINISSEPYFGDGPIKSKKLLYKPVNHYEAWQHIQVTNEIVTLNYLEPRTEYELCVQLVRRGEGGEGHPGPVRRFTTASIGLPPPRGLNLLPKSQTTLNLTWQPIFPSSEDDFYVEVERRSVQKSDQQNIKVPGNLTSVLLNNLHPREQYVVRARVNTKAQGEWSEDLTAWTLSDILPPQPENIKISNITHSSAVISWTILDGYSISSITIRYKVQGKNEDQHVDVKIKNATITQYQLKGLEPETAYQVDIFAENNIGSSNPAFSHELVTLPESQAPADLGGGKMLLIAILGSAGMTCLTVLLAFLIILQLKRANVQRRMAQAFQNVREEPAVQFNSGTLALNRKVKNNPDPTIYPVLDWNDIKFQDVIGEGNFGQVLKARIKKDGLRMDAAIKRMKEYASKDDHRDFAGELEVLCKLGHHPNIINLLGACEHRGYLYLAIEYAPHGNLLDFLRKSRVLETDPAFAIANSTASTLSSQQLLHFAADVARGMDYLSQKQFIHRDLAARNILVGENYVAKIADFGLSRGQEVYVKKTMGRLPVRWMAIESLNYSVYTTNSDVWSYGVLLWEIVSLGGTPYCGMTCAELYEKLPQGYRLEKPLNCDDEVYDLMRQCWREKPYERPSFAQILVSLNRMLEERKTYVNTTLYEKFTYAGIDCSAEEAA

## Cc1ccc(C(=O)Nc2cccc(C(F)(F)F)c2)cc1C(=O)Nc1cnc(N)nc1
[1]
  pIC50: 7.82
[2]
  pIC50: < 4.60
[3]
  pIC50: < 5.30
[4]
  pIC50: 6.69
[5]
  pIC50: 7.06

## Cc1ccc(C(=O)Nc2cccc(C(F)(F)F)c2)cc1-c1ccc2nc(N)ncc2c1
[6]
  pIC50: 8.05

## Cc1ccc(NC(=O)c2cccc(C(F)(F)F)c2)cc1C(=O)Nc1cnc(NCCCN2CCOCC2)nc1
[1]
  pIC50: 7.62
[2]
  pIC50: < 4.60
[6]
  pIC50: 6.09
[3]
  pIC50: < 4.60
[4]
  pIC50: < 5.08
[5]
  pIC50: 8.00

## COc1cc(OC)cc(C(=O)Nc2ccc(C)c(C(=O)Nc3cnc(Nc4ccc(N5CCN(C)CC5)cc4)nc3)c2)c1
[1]
  pIC50: 8.85
[7]
  fraction unbound: 0.012
[8]
  AUC(0-inf): 528 ng·h/mL
[9]
  half-life: 2.5 h
[2]
  pIC50: < 4.60
[6]
  pIC50: 7.11
[10]
  bioavailability: 8%
[3]
  pIC50: < 5.08
[11]
  Tmax: 0.33 h
[12]
  clearance: 4.83 mL/min/kg
[4]
  pIC50: 6.92
[13]
  pIC50: 7.37
[5]
  pIC50: 8.40
[14]
  Cmax: 191 ng/mL
[15]
  fraction unbound: 0.017
[16]
  Vd: 0.79 L/kg

## CC(=O)Nc1ccc(C)c(C(=O)Nc2cnc(Nc3ccc(N4CCN(C)CC4)cc3)nc2)c1
[1]
  pIC50: 7.32
[2]
  pIC50: < 4.60
[3]
  pIC50: < 4.60
[4]
  pIC50: < 5.30
[5]
  pIC50: 7.20

## Cc1ccc(NC(=O)c2cccc(C(F)(F)F)c2)cc1-c1ccc2nc(N)ncc2c1
[1]
  pIC50: 9.40
[2]
  pIC50: 6.81
[6]
  pIC50: 7.37
[3]
  pIC50: 7.68
[4]
  pIC50: 8.22
[5]
  pIC50: 9.00

## Cc1ccc(NC(=O)c2cnoc2C)cc1C(=O)Nc1cnc(Nc2ccc(N3CCN(C)CC3)cc2)nc1
[1]
  pIC50: 7.85
[2]
  pIC50: < 4.60
[6]
  pIC50: 5.41
[3]
  pIC50: < 4.60
[4]
  pIC50: 5.42
[5]
  pIC50: 6.75

## Cc1ccc(NC(=O)c2ccc3c(c2)OC(F)(F)O3)cc1C(=O)Nc1cnc(Nc2ccc(N3CCN(C)CC3)cc2)nc1
[1]
  pIC50: 8.89
[7]
  fraction unbound: 0.019
[8]
  AUC(0-inf): 58 ng·h/mL
[9]
  half-life: 2.5 h
[2]
  pIC50: < 4.60
[6]
  pIC50: 7.24
[10]
  bioavailability: 4%
[3]
  pIC50: < 5.08
[11]
  Tmax: 0.42 h
[12]
  clearance: 22.8 mL/min/kg
[4]
  pIC50: 6.57
[13]
  pIC50: 7.89
[5]
  pIC50: 8.00
[14]
  Cmax: 16 ng/mL
[15]
  fraction unbound: 0.011
[16]
  Vd: 3.76 L/kg

## Cc1ccc(NC(=O)c2ccc(C(C)(C)C)cc2)cc1C(=O)Nc1cnc(Nc2ccc(N3CCN(C)CC3)cc2)nc1
[1]
  pIC50: 8.82
[9]
  half-life: 2.9 h
[2]
  pIC50: < 4.60
[6]
  pIC50: 8.00
[3]
  pIC50: < 5.08
[12]
  clearance: 111 mL/min/kg
[4]
  pIC50: 7.49
[5]
  pIC50: 7.66
[16]
  Vd: 15.8 L/kg

## COc1ccccc1C(=O)Nc1ccc(C)c(C(=O)Nc2cnc(Nc3ccc(N4CCN(C)CC4)cc3)nc2)c1
[1]
  pIC50: 8.30
[2]
  pIC50: < 4.60
[6]
  pIC50: 6.40
[3]
  pIC50: < 4.60
[4]
  pIC50: 5.95
[5]
  pIC50: 8.10

## CCc1ccc(NC(=O)c2ccc3c(c2)OC(F)(F)O3)cc1C(=O)Nc1cnc(Nc2ccc(N3CCN(C)CC3)cc2)nc1
[1]
  pIC50: 8.22
[2]
  pIC50: < 4.60
[6]
  pIC50: 6.03
[3]
  pIC50: < 4.60
[4]
  pIC50: < 5.30
[5]
  pIC50: 6.63

## Cc1ccc(NC(=O)c2ccccc2)cc1C(=O)Nc1cnc(Nc2ccc(N3CCN(C)CC3)cc2)nc1
[1]
  pIC50: 8.30
[2]
  pIC50: < 4.60
[6]
  pIC50: 6.73
[3]
  pIC50: < 4.60
[4]
  pIC50: 6.02
[5]
  pIC50: 9.05

## Cc1ccc(NC(=O)Nc2cccc(C(F)(F)F)c2)cc1C(=O)Nc1cnc(Nc2ccc(N3CCN(C)CC3)cc2)nc1
[1]
  pIC50: 9.22
[2]
  pIC50: < 4.60
[6]
  pIC50: 7.06
[3]
  pIC50: < 5.08
[4]
  pIC50: 7.39
[5]
  pIC50: 8.70

## Cc1ccc(NC(=O)Nc2cccc(C(F)(F)F)c2)cc1C(=O)Nc1cnc(N)nc1
[1]
  pIC50: 7.20
[2]
  pIC50: < 4.60
[6]
  pIC50: 6.80
[3]
  pIC50: < 4.60
[4]
  pIC50: 6.23

## Cc1ccc(NC(=O)c2cccc(C(F)(F)F)c2)cc1C(=O)Nc1cnc(NC2CCN(C)CC2)nc1
[1]
  pIC50: 5.88
[2]
  pIC50: < 4.60
[3]
  pIC50: < 4.60
[4]
  pIC50: < 4.60
[5]
  pIC50: 8.30

## CN1CCN(c2ccc(Nc3ncc(NC(=O)c4c(Cl)cccc4Cl)cn3)cc2)CC1
[1]
  pIC50: 8.00
[2]
  pIC50: < 4.60
[6]
  pIC50: 6.26
[3]
  pIC50: < 4.60
[4]
  pIC50: < 4.60
[5]
  pIC50: 5.97

## Cc1ccc(NC(=O)c2cccc(C(F)(F)F)c2)cc1C(=O)Nc1cnc(NCCN2CCOCC2)nc1
[2]
  pIC50: < 4.60
[6]
  pIC50: 6.69
[3]
  pIC50: < 4.60
[4]
  pIC50: < 5.08
[5]
  pIC50: 8.22

## CN1CCN(c2ccc(Nc3ncc(NC(=O)c4cc(NC(=O)c5ccc6c(c5)OC(F)(F)O6)ccc4Cl)cn3)cc2)CC1
[1]
  pIC50: 8.74
[2]
  pIC50: < 5.30
[6]
  pIC50: 7.54
[3]
  pIC50: < 5.30
[4]
  pIC50: 7.89
[5]
  pIC50: 8.22

## Cc1ccc(C(=O)Nc2cccc(C(F)(F)F)c2)cc1C(=O)Nc1cnc(Nc2ccc(N3CCN(C)CC3)cc2)nc1
[2]
  pIC50: 6.36
[6]
  pIC50: 7.82
[3]
  pIC50: 6.91
[4]
  pIC50: 8.30
[5]
  pIC50: 8.00

## Cc1ccc(NC(=O)c2cccc(C(F)(F)F)c2)c(C)c1C(=O)Nc1cnc(Nc2ccc(N3CCN(C)CC3)cc2)nc1
[1]
  pIC50: 8.22
[2]
  pIC50: < 4.60
[6]
  pIC50: 6.08
[3]
  pIC50: < 4.60
[4]
  pIC50: 5.60
[5]
  pIC50: 6.99

## Cc1ccc(NC(=O)Nc2cccc(C(F)(F)F)c2)cc1-c1ccc2nc(N)ncc2c1
[1]
  pIC50: 8.15
[2]
  pIC50: 5.52
[6]
  pIC50: 6.69
[3]
  pIC50: 7.03
[4]
  pIC50: 6.77
[5]
  pIC50: 7.55

## Cc1ccc(NC(=O)c2cccc(C(F)(F)F)c2)cc1C(=O)Nc1cncnc1
[2]
  pIC50: < 4.60
[3]
  pIC50: < 4.60
[4]
  pIC50: < 5.08
[5]
  pIC50: 6.70
